Experimental data published in the SangsterLogP compilation.

Assay: method code SF-AS, from DOI: 10.1016/0378-5173(79)90126-1
Conditions: pH 3.5

Structure (SMILES)	logD
CCC(CC)(C(=O)NC(N)=O)C(=O)OC(C)C	1.99
CCC(CC)(C(=O)NC(N)=O)C(=O)OC	0.95
C=CCC(CC=C)(C(=O)NC(N)=O)C(=O)OC	1.37
CNC(=O)NC(=O)C(C)(C(=O)OC)C1C=CCCC1 (stereo not given)	1.75
CCC(CC)(C(=O)NC(N)=O)C(=O)OCc1ccccc1	2.74
CCC(CC)(C(=O)NC(N)=O)C(=O)OCC(=O)OC	0.99
CCC(C(=O)NC(N)=O)(C(=O)OC)c1ccccc1 (stereo not given)	1.58
CNC(=O)NC(=O)C(C)(C(=O)OCOC)C1=CCCCC1 (stereo not given)	1.8
CCOC(=O)C(CC)(CC)C(=O)NC(N)=O	1.45
CCNC(=O)NC(=O)C(C)(C(=O)OC)C1=CCCCC1 (stereo not given)	2.25
